What is called EC50 is the midpoint of the concentration-response curve.

For experiment [1], the target named is cerebellar granule neurones. The experiment is classed as cell-based, rat. The conditions noted are these: 48 h. On the procedure:
Cerebellar granule neurones were used in the examples to test neuroprotection by CRF receptor agonists. Cerebellar granule neurones (CGNs) undergo apoptosis during the first few weeks of postnatal life, and in culture require mildly depolarising concentrations of KCl (25 mM) for their survival and maturation (S. R: D'Mello et al., Proc. Natl. Acad. Sci. USA 90, 10989-10993, 1993). The growth signal provided by KCl depends upon activation of the phosphatidylinositol 3-kinase (PI 3-kinase) pathway, and pharmacological inhibition of PI 3-kinase in differentiated granule neurones leads to apoptotic death in the CGNs (T. M. Miller et al., J. Biol. Chem., 272, 9847-9853, 1997). Thus, cultured CGNs represent a suitable model to study mechanisms of programmed cell death, and to identify putative neuroprotective signalling pathways.
Assay 1: Cerebellar granule neurones prepared from postnatal day 8 Sprague Dawley rat pups were used for experiments on death induced by inhibition of PI 3-kinase. General culture methods are described in S. D. Skaper et al. in Methods in Neurosciences, Vol. 2 (Conn P. M., ed), pp. 17-33. Academic Press, San Diego, 1990. At 8-9 days in vitro (DIV), granule neurone cultures were shifted to phenol red-free Dulbecco's modified Eagle's medium lacking serum, and containing 0.05% bovine serum albumin and 25 mM KCl. Death was induced by addition of the PI 3-kinase inhibitor LY 294002 (75 μM). CRF or CRF agonist peptides (urotensin 1, urocortin, sauvagine) were added at different concentrations (from 0.3nM to 300 nM or 1000 nM) together with LY 294002. Forty-eight hours later neuronal survival was quantified by a colorimetric reaction MTT. Absolute MTT values obtained were normalised for small differences in interexperiment plating densities by scaling to the mean of sham-treated sister cultures (defined as 100%).
Results are shown in Table 1 below and in graphical form in FIG. 1, which show the percentage mean neuronal survival (and standard deviation), when in the presence of the relevant CRF receptor agonists and LY 294002, as a function of agonist concentration. […] Urotensin 1, urocortin and sauvagine were also neuroprotective albeit with lower potency (<1 μM).

For a further experiment, the system named is hippocampal neurones. In words: Amyloid-β peptide (25-35) toxicity, survival by counting viable neurons (FIGS. 8, 9). In kind it is cell-based. The conditions noted are these: Aβ(25-35) 10 μM, CRF 3-100 nM, 3 days. The method, then: In order to test whether CRF receptor agonists protect neurones from death caused by Aβ, the following experiment was conducted (FIGS. 8 and 9). Hippocampal neurons from embryonic day 18 rat were cultured in serum-free medium (neurobasal/B27) for 9 days. The culture methods are described on page 48 of S. D. Skaper et al., J. Neurochem., 2001, 76, 47-55. Cells were then treated with amyloid-β peptide (fragment 25-35) (Sigma, cat. no. A-4559, sequence Gly-Ser-Asn-Lys-Gly-Ala-Ile-Ile-Gly-Leu-Met) at 10 μM plus the indicated CRF receptor agonist at the indicated concentration, in the same culture medium. […] Cell survival was assessed after 3 days, by fixing the cultures and counting microscopically viable neurons. Values are expressed relative to numbers of surviving neurons in untreated cultures (=100).

In the case of “H-SQEPPISLDLTFHLLREVLEMTKADQLAQQAHNNRKLLDIA-NH2 [CRF]”, in experiment [1], the EC50 was ~10 nM. Moreover, the “neuroprotective effect against Aβ toxicity (FIG. 8)” value in the experiment with hippocampal neurones is 40-50%.

(Values after patent publication US20080113908A1, “Use of CRF receptor agonists for the treatment or Prophylaxis of diseases, for example Neurodegenerative diseases” (SmithKline Beecham plc, priority 2000, published 2008).)
